According to the supplement of paper PMC13207355:

Assays:
Conditions in all cases: exposure time: 72 h
E13 [1] = patient-derived glioblastoma stem cells of classical subtype; experiment: surviving fraction (nuclei count normalised to DMSO); higher = more cells surviving (less toxic)
E21 [2] = patient-derived glioblastoma stem cells of mesenchymal subtype; experiment: as above
E28 [3] = patient-derived glioblastoma stem cells of classical subtype; experiment: as above
E31 [4] = patient-derived glioblastoma stem cells of proneural subtype; experiment: as above
E34 [5] = patient-derived glioblastoma stem cells of proneural subtype; experiment: as above
E57 [6] = patient-derived glioblastoma stem cells of mesenchymal subtype; experiment: as above
FT3469 [7] = normal neural stem cell line; experiment: as above
E13 [8] = experiment: phenotypic distance (Euclidean, principal components) from DMSO controls (arbitrary units); higher = stronger morphological change
E21 [9] = experiment: as above
E28 [10] = experiment: as above
E31 [11] = experiment: as above
E34 [12] = experiment: as above
E57 [13] = experiment: as above
FT3469 [14] = experiment: as above
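Wherever phenotypic distance (Euclidean, principal components) from DMSO controls is given: cell Painting imaging in 384-well plates, CellProfiler features reduced to at least 20 principal components, Euclidean distance versus same-plate DMSO vehicle wells (0.1% v/v), median over six images per well.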
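Wherever surviving fraction (nuclei count normalised to DMSO) is given: nuclei counted by high-content imaging of Hoechst-stained cells in laminin-coated 384-well plates, relative to 0.1% DMSO vehicle wells, with staurosporine as cell-death control.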

C=CC(=O)Nc1cccc(Oc2nc(Nc3ccc(N4CCN(C)CC4)cc3)nc3ccsc23)c1 [Olmutinib]
Conditions	phenotypic distance	surviving fraction
E13 [1], 4.1 nM	–	0.944
E13 [1], 12.3 nM	–	0.915
E13 [1], 37 nM	–	0.963
E13 [1], 111.1 nM	–	0.967
E13 [1], 333.3 nM	–	0.965
E13 [1], 1000 nM	–	0.801
E13 [1], 3000 nM	–	0.453
E13 [8], 4.1 nM	0.908	–
E13 [8], 12.3 nM	0.809	–
E13 [8], 37 nM	2.13	–
E13 [8], 111.1 nM	1.1	–
E13 [8], 333.3 nM	0.827	–
E13 [8], 1000 nM	0.937	–
E13 [8], 3000 nM	1.92	–
E21 [2], 4.1 nM	–	0.895
E21 [2], 12.3 nM	–	0.932
E21 [2], 37 nM	–	0.932
E21 [2], 111.1 nM	–	0.759
E21 [2], 333.3 nM	–	0.873
E21 [2], 1000 nM	–	0.67
E21 [2], 3000 nM	–	0.411
E21 [9], 4.1 nM	0.923	–
E21 [9], 12.3 nM	0.831	–
E21 [9], 37 nM	0.851	–
E21 [9], 111.1 nM	3.27	–
E21 [9], 333.3 nM	1.24	–
E21 [9], 1000 nM	2.44	–
E21 [9], 3000 nM	5.22	–
E28 [3], 4.1 nM	–	0.955
E28 [3], 12.3 nM	–	0.88
E28 [3], 37 nM	–	1.02
E28 [3], 111.1 nM	–	0.954
E28 [3], 333.3 nM	–	0.885
E28 [3], 1000 nM	–	0.842
E28 [3], 3000 nM	–	0.419
E28 [10], 4.1 nM	0.675	–
E28 [10], 12.3 nM	0.862	–
E28 [10], 37 nM	0.601	–
E28 [10], 111.1 nM	0.634	–
E28 [10], 333.3 nM	0.515	–
E28 [10], 1000 nM	1.01	–
E28 [10], 3000 nM	2.28	–
E31 [4], 4.1 nM	–	0.776
E31 [4], 12.3 nM	–	0.969
E31 [4], 37 nM	–	1.01
E31 [4], 111.1 nM	–	0.698
E31 [4], 333.3 nM	–	0.856
E31 [4], 1000 nM	–	0.568
E31 [4], 3000 nM	–	0.155
E31 [11], 4.1 nM	1.5	–
E31 [11], 12.3 nM	0.605	–
E31 [11], 37 nM	0.731	–
E31 [11], 111.1 nM	1.36	–
E31 [11], 333.3 nM	0.65	–
E31 [11], 1000 nM	1.66	–
E31 [11], 3000 nM	4.05	–
E34 [5], 4.1 nM	–	0.929
E34 [5], 12.3 nM	–	0.967
E34 [5], 37 nM	–	0.814
E34 [5], 111.1 nM	–	0.994
E34 [5], 333.3 nM	–	0.857
E34 [5], 1000 nM	–	0.804
E34 [5], 3000 nM	–	0.673
E34 [12], 4.1 nM	0.793	–
E34 [12], 12.3 nM	0.977	–
E34 [12], 37 nM	0.66	–
E34 [12], 111.1 nM	0.999	–
E34 [12], 333.3 nM	0.636	–
E34 [12], 1000 nM	0.75	–
E34 [12], 3000 nM	2.02	–
E57 [6], 4.1 nM	–	0.983
E57 [6], 12.3 nM	–	1.09
E57 [6], 37 nM	–	0.983
E57 [6], 111.1 nM	–	0.915
E57 [6], 333.3 nM	–	0.958
E57 [6], 1000 nM	–	0.845
E57 [6], 3000 nM	–	0.585
E57 [13], 4.1 nM	0.67	–
E57 [13], 12.3 nM	0.94	–
E57 [13], 37 nM	0.658	–
E57 [13], 111.1 nM	2.04	–
E57 [13], 333.3 nM	0.972	–
E57 [13], 1000 nM	0.888	–
E57 [13], 3000 nM	3.89	–
FT3469 [7], 4.1 nM	–	0.879
FT3469 [7], 12.3 nM	–	0.925
FT3469 [7], 37 nM	–	0.864
FT3469 [7], 111.1 nM	–	0.916
FT3469 [7], 333.3 nM	–	0.851
FT3469 [7], 1000 nM	–	0.856
FT3469 [7], 3000 nM	–	0.722
FT3469 [14], 4.1 nM	1.28	–
FT3469 [14], 12.3 nM	1.16	–
FT3469 [14], 37 nM	1.51	–
FT3469 [14], 111.1 nM	1.24	–
FT3469 [14], 333.3 nM	1.44	–
FT3469 [14], 1000 nM	1.3	–
FT3469 [14], 3000 nM	1.91	–

Cc1cc(Nc2cc(N3CCN(C)CC3)nc(Sc3ccc(NC(=O)C4CC4)cc3)n2)n[nH]1 [Tozasertib]
Conditions	phenotypic distance	surviving fraction
E13 [1], 4.1 nM	–	0.866
E13 [1], 12.3 nM	–	0.951
E13 [1], 37 nM	–	0.797
E13 [1], 111.1 nM	–	0.519
E13 [1], 333.3 nM	–	0.467
E13 [1], 1000 nM	–	0.391
E13 [1], 3000 nM	–	0.413
E13 [8], 4.1 nM	1.12	–
E13 [8], 12.3 nM	0.667	–
E13 [8], 37 nM	1.66	–
E13 [8], 111.1 nM	4.34	–
E13 [8], 333.3 nM	4.49	–
E13 [8], 1000 nM	4.52	–
E13 [8], 3000 nM	4.41	–
E21 [2], 4.1 nM	–	0.847
E21 [2], 12.3 nM	–	0.898
E21 [2], 37 nM	–	0.798
E21 [2], 111.1 nM	–	0.743
E21 [2], 333.3 nM	–	0.288
E21 [2], 1000 nM	–	0.215
E21 [2], 3000 nM	–	0.224
E21 [9], 4.1 nM	1.38	–
E21 [9], 12.3 nM	0.727	–
E21 [9], 37 nM	1.05	–
E21 [9], 111.1 nM	2.02	–
E21 [9], 333.3 nM	5.67	–
E21 [9], 1000 nM	6.71	–
E21 [9], 3000 nM	6.04	–
E28 [3], 4.1 nM	–	0.971
E28 [3], 12.3 nM	–	0.855
E28 [3], 37 nM	–	0.81
E28 [3], 111.1 nM	–	0.555
E28 [3], 333.3 nM	–	0.535
E28 [3], 1000 nM	–	0.453
E28 [3], 3000 nM	–	0.482
E28 [10], 4.1 nM	0.827	–
E28 [10], 12.3 nM	1.02	–
E28 [10], 37 nM	1.05	–
E28 [10], 111.1 nM	2.58	–
E28 [10], 333.3 nM	2.63	–
E28 [10], 1000 nM	2.85	–
E28 [10], 3000 nM	2.36	–
E31 [4], 4.1 nM	–	0.944
E31 [4], 12.3 nM	–	0.959
E31 [4], 37 nM	–	0.697
E31 [4], 111.1 nM	–	0.423
E31 [4], 333.3 nM	–	0.404
E31 [4], 1000 nM	–	0.311
E31 [4], 3000 nM	–	0.33
E31 [11], 4.1 nM	0.87	–
E31 [11], 12.3 nM	0.54	–
E31 [11], 37 nM	1.16	–
E31 [11], 111.1 nM	3.12	–
E31 [11], 333.3 nM	2.58	–
E31 [11], 1000 nM	3.12	–
E31 [11], 3000 nM	2.47	–
E34 [5], 4.1 nM	–	0.814
E34 [5], 12.3 nM	–	0.878
E34 [5], 37 nM	–	0.929
E34 [5], 111.1 nM	–	0.744
E34 [5], 333.3 nM	–	0.711
E34 [5], 1000 nM	–	0.728
E34 [5], 3000 nM	–	0.722
E34 [12], 4.1 nM	1.42	–
E34 [12], 12.3 nM	0.649	–
E34 [12], 37 nM	0.729	–
E34 [12], 111.1 nM	2.85	–
E34 [12], 333.3 nM	2.79	–
E34 [12], 1000 nM	2.34	–
E34 [12], 3000 nM	2.29	–
E57 [6], 4.1 nM	–	0.966
E57 [6], 12.3 nM	–	0.942
E57 [6], 37 nM	–	0.963
E57 [6], 111.1 nM	–	0.484
E57 [6], 333.3 nM	–	0.241
E57 [6], 1000 nM	–	0.19
E57 [6], 3000 nM	–	0.197
E57 [13], 4.1 nM	0.542	–
E57 [13], 12.3 nM	0.685	–
E57 [13], 37 nM	0.782	–
E57 [13], 111.1 nM	4.65	–
E57 [13], 333.3 nM	7.94	–
E57 [13], 1000 nM	8.6	–
E57 [13], 3000 nM	8.14	–
FT3469 [7], 4.1 nM	–	0.899
FT3469 [7], 12.3 nM	–	0.836
FT3469 [7], 37 nM	–	0.773
FT3469 [7], 111.1 nM	–	0.688
FT3469 [7], 333.3 nM	–	0.737
FT3469 [7], 1000 nM	–	0.697
FT3469 [7], 3000 nM	–	0.579
FT3469 [14], 4.1 nM	0.795	–
FT3469 [14], 12.3 nM	0.771	–
FT3469 [14], 37 nM	0.921	–
FT3469 [14], 111.1 nM	2.37	–
FT3469 [14], 333.3 nM	2.57	–
FT3469 [14], 1000 nM	2.47	–
FT3469 [14], 3000 nM	2.16	–
